Laboratory results published in patent US10106516B2, “PDE10 inhibitors and related compositions and methods” (Omeros Corporation, priority 2010, dated 2018).

Columns and labels:
PDE10 [1] = target: T1, PDE10 (Homo sapiens, UniProt Q9Y233); assay: PDE10 biochemical assay (two-step Thompson and Appleman method or SPA); conditions: PDE10 inhibition
T1 construct: made in house; host or cells: Sf9 insect cells (baculovirus)
Protocol: In short, cAMP is spiked with (^3H)cAMP and incubated with PDE10 and various concentrations of a compound of structure (I). After the appropriate incubation time, the reaction is terminated by heating. The mixture is then subjected to treatment with snake venom phosphatase. The phosphatase hydrolyzes any AMP in the mixture, but leaves unreacted cAMP intact. Thus, by separating cAMP from the mixture and determining its concentration (by radiography), the percent of inhibition can be determined. IC50 values can be calculated by performing the experiment at several concentrations using standard graphical means. A detailed description of the actual technique used for IC50 assays as set forth in following Examples.
The phosphodiesterase (PDE) assay was performed using recombinant human PDE 1A3, 2A3, 3 catalytic region, 4 catalytic region, 5 catalytic region, 7A, 8A, 9A2, 10A1 and 11A1 enzymes expressed in a baculoviral system using Sf9 cells. PDE activity was measured using a modification of the two-step method of Thompson and Appleman described above which was adapted for 96 well plate format. […] The final assay volume was 110 μl with assay buffer (10 mM MgCl2; 40 mM Tris.HCl; pH 7.4). Reactions were initiated with enzyme and incubated with (^3H)-substrate and substance for 20 minutes at 30° C. The reaction was terminated by denaturing the enzyme (heating the reaction to 70° C. for 2 minutes). The reaction was then cooled at 4° C. for 10 minutes before the addition of snake venom (Crotalus atrox, 0.2 mg/ml) for 10 minutes at 30° C., thus allowing non-specific hydrolysis of the tritiated substrate. Separation of the remaining unhydrolysed cyclic nucleotide was achieved by a batch binding of the mixture to activated Dowex (200 μl) anion exchange resin. The anion exchange resin bound the charged nucleotides, leaving only hydrolysed (^3H) substrate in the soluble fraction. The soluble fraction (50 μl) was then added to microscint-20 (200 μl) and counted on a Top Count Plate reader. Radioactivity units were plotted against inhibitor concentration and IC50 values obtained using Graph Pad Prism software.
Alternatively, phosphodiesterase activity was measured by scintillation proximity assay (SPA) with [^3H]-cGMP as substrate. Purified PDE10 was diluted and stored in 25 mM Tris-Cl (pH 8.0)/100 mM NaCl/0.05% Tween 20/50% glycerol/3 mM DTT. Assays contained (final concentrations): 50 mM Tris-Cl (pH 7.5)/8.3 mM MgCl2/1.7 mM EGTA/0.5 mg/ml BSA/5% DMSO and 2 ng PDE10 in a final volume of 0.1 mL. Inhibition was evaluated at 8 concentrations in duplicate. Reactions were initiated by addition of enzyme and were terminated after 20 minutes at 30° C. by the addition of 50 μl of SPA beads containing Zn^++. The mixture was shaken, allowed to settle for 3 hours, and counted in a Wallac plate counter. Results (net cpm) were fitted to a four parameter logistic model using Excel Solver®.

C57BL/6 male mice [2] = assay: Conditioned avoidance response (CAR) model of psychosis; type: in vivo; conditions: vs vehicle
Protocol: (§1) Dosing of the compounds is by intraperitoneal (i.p.) injection or oral gavage (p.o.). Intraperitoneal injection is accomplished by restraining the animal, exposing the abdomen and inserting the needle just above the knees on the mouse's right side. Oral gavage is performed by restraining the animal in such a way that its head is tilted back and the esophagus is relatively straight. The gavage needle (20 G×1.5″, Cadence Science) is inserted into the mouth in line with the body and gently pushed along the esophagus and into the stomach. If resistance is encountered the needle is removed and reinserted.
Conditioned avoidance response (CAR) is a behavioral test to evaluate the antipsychotic effect of a test compound. It utilizes a shuttle box (Med Associates, St. Albans, Vt.) with two identical chambers separated by a retractable door. Each chamber is fitted with a metal grid floor that is capable of delivering electric shocks independently. A computer program is used to implement the testing paradigm as well as record the animal's movement between the two chambers through infrared beam sensors. The testing paradigm is as follows. A mouse is placed into one chamber. A light (conditioned stimulus, CS) comes on. Five seconds later, mild electric shocks (0.4 mA; (unconditioned stimulus, US) are delivered to the chamber where the mouse is located (as detected by infrared beams) until the mouse escapes to the adjacent chamber or until 10 sec has elapsed. The US and CS always co-terminate. With randomized inter-trial intervals averaging 15 sec, 30 such CS-US pairing trials are given to each mouse each day. For each trial, an escape response is registered if the mouse crosses to the other chamber after being shocked (i.e., during the 10-sec US period), and an avoidance response is registered if the mouse crosses to the other chamber during the first 5-sec CS only period. The animals are trained in this paradigm for 30-40 days, during which the average percentage of avoidance responses will improve to 80-90%. […] These trained animals are then used for compound testing with the same paradigm.
C57BL/6 male mice were trained in the CAR paradigm to predict and avoid the noxious stimulus (foot shock), reaching a plateau of approximately 25 avoidance responses per 30 trials each day. […] Vehicle treatment and compound treatment were given to the same animals on alternating days, and the effect of compound in reducing avoidance response was analyzed through within-subject comparison (paired t-test).
C57BL/6 male mice were trained in the CAR paradigm to predict and avoid the noxious stimulus (foot shock), reaching a plateau of approximately 25-28 avoidance responses per 30 trials (“training plateau”) each day. […] Vehicle treatment and compound treatment were given to the same animals on alternating days, and the effect of compound in reducing avoidance response was analyzed through within-subject comparison (paired t-test).

C57BL/6 male mice [3] = assay: PCP-induced hyperactivity model of psychosis; type: in vivo; conditions: vs vehicle+PCP control
Protocol: as §1
Psychostimulant-induced hyperactivity is measured by injecting animals with PCP and monitoring the animals' activity levels in VersaMax chambers (Accuscan Instruments, Columbus, Ohio) measuring 40×40 cm. Locomotor activity is detected by photobeam breaks as the animal crosses each beam. The animal is placed in the center of the field and left undisturbed for 20 minutes to measure its spontaneous activity in a novel environment. Measurements used to assess locomotor activity include: horizontal activity, total distance traveled, vertical activity (rearing events—animal raises up on hindlimbs), rotation, stereotypy, and distance traveled in the center compared to total distance traveled (center:total distance ratio). The NMDA antagonist PCP induces a psychosis-like syndrome manifest as hyperactivity and increased stereotypic behavior. Known antipsychotics are able to reverse psychostimulant-induced hyperactivity and stereotypy.
(§2) C57BL/6 male mice were given either compound 1-1 or vehicle by intraperitoneal injection (FIG. 1) or oral gavage (FIG. 2). Twenty minutes (for i.p.) or forty minutes (for p.o.) later, they were injected with PCP (5 mg/kg, i.p.). Ten minutes later, the mice were placed in activity chambers and their locomotor activity in the horizontal dimension was monitored by infrared beam breaks for 20 min (5 consecutive 4-minute intervals (INT) as indicated).
as §2, with “2-1” for “1-1”, “3)” for “1)”, “4).” for “2).”, “40” for “forty”
as §2, with “11-1” for “1-1”, “injection. Five” for “injection (FIG. 1) or oral gavage (FIG. 2). Twenty”, “later” for “(for i.p.) or forty minutes (for p.o.) later,”

PDE10 [4] = conditions: Soderling and Beavo 2000, read-out: IC50 (50% inhibitory concentration); cited from earlier work
[5] = 2 mg/kg oral gavage, 55 minutes prior to testing
[6] = 5 mg/kg oral gavage, 55 minutes prior to testing
[7] = 10 mg/kg oral gavage, 55 minutes prior to testing
[8] = 10 mg/kg i.p., 20 min before PCP (5 mg/kg, i.p.)
[9] = 10 mg/kg oral gavage, 25 minutes prior to testing

T1 sequence (Q9Y233 1-779 isoform Q9Y233-1): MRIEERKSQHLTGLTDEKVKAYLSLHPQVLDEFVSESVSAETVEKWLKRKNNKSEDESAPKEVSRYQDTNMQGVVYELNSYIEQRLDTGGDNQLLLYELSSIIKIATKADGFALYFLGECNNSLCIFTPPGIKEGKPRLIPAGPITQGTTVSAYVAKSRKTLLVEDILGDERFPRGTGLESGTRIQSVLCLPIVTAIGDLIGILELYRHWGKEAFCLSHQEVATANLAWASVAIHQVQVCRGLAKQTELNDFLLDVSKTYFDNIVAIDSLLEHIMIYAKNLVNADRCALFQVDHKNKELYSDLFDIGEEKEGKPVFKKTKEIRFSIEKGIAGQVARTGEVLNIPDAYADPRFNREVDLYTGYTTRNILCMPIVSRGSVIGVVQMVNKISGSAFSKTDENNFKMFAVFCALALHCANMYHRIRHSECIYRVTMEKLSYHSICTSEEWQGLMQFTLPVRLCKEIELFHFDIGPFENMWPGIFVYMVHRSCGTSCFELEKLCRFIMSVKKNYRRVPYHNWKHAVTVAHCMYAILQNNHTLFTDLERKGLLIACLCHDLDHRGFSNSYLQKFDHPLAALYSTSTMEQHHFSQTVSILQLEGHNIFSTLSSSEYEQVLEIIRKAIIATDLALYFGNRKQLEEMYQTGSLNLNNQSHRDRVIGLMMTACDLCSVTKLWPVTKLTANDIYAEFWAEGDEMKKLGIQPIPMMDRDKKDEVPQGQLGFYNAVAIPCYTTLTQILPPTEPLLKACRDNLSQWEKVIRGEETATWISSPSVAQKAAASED

| SMILES | IC50 (PDE10 [1]) [nM] | reduction of number of avoidance responses (CAR) (C57BL/6 male mice [2]; [6]) | reduction of number of avoidance responses (CAR) (C57BL/6 male mice [2]; [7]) | other results |
| --- | --- | --- | --- | --- |
| COc1cc(-c2ccc(C(=O)C(OC)c3ccc(-c4nnc(C)o4)cc3)o2)cc(OC)c1Cl (stereo not drawn) [Compound 61-1, 1-(5-(4-Chloro-3,5-Dimethoxyphenyl)Furan-2-Yl)-2-Methoxy-2-(4-(5-Methyl-1,3,4-Oxadiazol-2-Yl)Phenyl)Ethanone] | ≤ 1000 | significantly reduces | significantly reduces | reduction of number of avoidance responses (CAR) (C57BL/6 male mice [2]; [5]): significantly reduces |
| CCOC(C(=O)c1ccc(-c2cc(OC)c(Br)c(OC)c2)o1)c1ccc(-c2nnc(C)o2)cc1 (stereo not drawn) [Compound 47-1, 1-(5-(4-Bromo-3,5-Dimethoxyphenyl)Furan-2-Yl)-2-Ethoxy-2-(4-(5-Methyl-1,3,4-Oxadiazol-2-Yl)Phenyl)Ethanone] | ≤ 1000 | significantly reduces | significantly reduces | reduction of number of avoidance responses (CAR) (C57BL/6 male mice [2]; [5]): a trend that did not reach significance |
| COc1cc(-c2coc(C(=O)C(OC)c3ccc(-c4nnc(C)o4)cc3)n2)cc(OC)c1Br (stereo not drawn) [Compound 11-1, 1-(4-(4-Bromo-3,5-Dimethoxyphenyl)Oxazol-2-Yl)-2-Methoxy-2-(4-(5-Methyl-1,3,4-Oxadiazol-2-Yl)Phenyl)Ethanone] | ≤ 1000 |  |  | reduction of PCP-induced hyperactivity (horizontal locomotor activity) (C57BL/6 male mice [3]; 10 mg/kg i.p., 5 min before PCP (5 mg/kg, i.p.)): significantly reduces |
| COc1cc(-c2csc(C(=O)C(OC)c3ccc(N4CCOCC4)cc3)n2)cc(OC)c1Br (stereo not drawn) [Compound 1-1, 1-(4-(4-Bromo-3,5-Dimethoxyphenyl)Thiazol-2-Yl)-2-Methoxy-2-(4-Morpholinophenyl)Ethanone] | ≤ 1000 |  |  | reduction of PCP-induced hyperactivity (horizontal locomotor activity) (C57BL/6 male mice [3]; [8]): significantly reduces; reduction of PCP-induced hyperactivity (horizontal locomotor activity) (C57BL/6 male mice [3]; oral gavage, dose not given, 40 min before PCP (5 mg/kg, i.p.)): effective |
| COc1cc(-c2ccc(C(=O)C(OC)c3ccc(-c4nnc(C)s4)cc3)o2)cc(OC)c1Cl (stereo not drawn) [Compound 49-1, 1-(5-(4-Chloro-3,5-Dimethoxyphenyl)Furan-2-Yl)-2-Methoxy-2-(4-(5-Methyl-1,3,4-Thiadiazol-2-Yl)Phenyl)Ethanone] | ≤ 1000 |  | significantly reduces |  |
| CC(C)Cn1c(=O)n(C)c(=O)c2[nH]cnc21 [IBMX] |  |  |  | IC50 (PDE10 [4]): 2600 nM |
| COc1cc(-c2coc(C(=O)C(OC)c3ccc(N4CCOCC4)cc3)n2)cc(OC)c1Br (stereo not drawn) [Compound 2-1, 1-(4-(4-Bromo-3,5-Dimethoxyphenyl)Oxazol-2-Yl)-2-Methoxy-2-(4-Morpholinophenyl)-Ethanone] | ≤ 1000 |  |  | reduction of number of avoidance responses (CAR) (C57BL/6 male mice [2]; 12 mg/kg oral gavage, 30 minutes before testing): significantly reduces; reduction of PCP-induced hyperactivity (horizontal locomotor activity) (C57BL/6 male mice [3]; [8]): significantly reduces; reduction of PCP-induced hyperactivity (horizontal locomotor activity) (C57BL/6 male mice [3]; 10 mg/kg oral gavage, 40 min before PCP (5 mg/kg, i.p.)): effective |
| COc1cc(-c2ccc(C(=O)C(OC)c3ccc(-c4nnc(C)s4)cc3)o2)cc(OC)c1Br (stereo not drawn) [Compound 34-1, 1-(5-(4-Bromo-3,5-Dimethoxyphenyl)Furan-2-Yl)-2-Methoxy-2-(4-(5-Methyl-1,3,4-Thiadiazol-2-Yl)Phenyl)Ethanone] | ≤ 1000 |  |  | reduction of number of avoidance responses (CAR) (C57BL/6 male mice [2]; [9]): significantly reduces |
| CCOC(C(=O)c1ccc(-c2cc(OC)c(Cl)c(OC)c2)o1)c1ccc(-c2nnc(C)s2)cc1 (stereo not drawn) [Compound 65-10] | ≤ 1000 | significantly reduces | significantly reduces |  |
| CCOC(C(=O)c1ccc(-c2cc(OC)c(Cl)c(OC)c2)o1)c1ccc(-c2nnc(C)o2)cc1 (stereo not drawn) [Compound 63-1, 1-(5-(4-Chloro-3,5-Dimethoxyphenyl)Furan-2-Yl)-2-Ethoxy-2-(4-(5-Methyl-1,3,4-Oxadiazol-2-Yl)Phenyl)Ethanone] | ≤ 1000 | significantly reduces | significantly reduces | reduction of number of avoidance responses (CAR) (C57BL/6 male mice [2]; [5]): significantly reduces |
| COc1cc(-c2ccc(C(=O)C(OC)c3ccc(-c4nnc(C)o4)cc3)o2)cc(OC)c1OC (stereo not drawn) [Compound 36-1, 2-Methoxy-2-(4-(5-Methyl-1,3,4-Oxadiazol-2-Yl)Phenyl)-1-(5-(3,4,5-Trimethoxyphenyl)Furan-2-Yl)Ethanone] | ≤ 1000 |  |  | reduction of number of avoidance responses (CAR) (C57BL/6 male mice [2]; 5 mg/kg oral gavage, 25 minutes prior to testing): a trend that did not reach significance; reduction of number of avoidance responses (CAR) (C57BL/6 male mice [2]; [9]): a trend that did not reach significance; reduction of number of avoidance responses (CAR) (C57BL/6 male mice [2]; 15 mg/kg oral gavage, 25 minutes prior to testing): significantly reduces |
